Measured values from patent US20240158446A1, “CYCLIC COMPOUND HAVING SELECTIVE INHIBITORY ACTION ON KRAS OVER HRAS AND NRAS” (CHUGAI SEIYAKU KABUSHIKI KAISHA, priority 2021, published 2024).
*1 amine or outer side, *2 acyl side, *3 side chain or, on linkers, in order; H or OH if unused. Where a SMILES comes first, the peptide text is derived from it. Bridges are numbered along the chain shown (N, C = ends). [ ]: non-standard residue; d: D form. The star is where a group is joined. hPhe(3-Cl-4-CF3) = N[C@@H](CCc1ccc(C(F)(F)F)c(Cl)c1)C(=O)O; NEtPhe(4-CF3) = CCN[C@@H](Cc1ccc(C(F)(F)F)cc1)C(=O)O; NEtPhe(4-Me) = CCN[C@@H](Cc1ccc(C)cc1)C(=O)O; NMePhe(4-Me) = CN[C@@H](Cc1ccc(C)cc1)C(=O)O; X7 = CCN([C@H](C(=O)[*:2])C1CCCC1)[*:1]; NMeGly(cPent) = CN[C@H](C(=O)O)C1CCCC1; NMeD = CN[C@@H](CC(=O)O)C(=O)O; NMeL = CN[C@@H](CC(C)C)C(=O)O; NMeV = CN[C@H](C(=O)O)C(C)C; Morpholide = C1CN(*)CCO1; NMeA = CN[C@@H](C)C(=O)O; Ac5c = NC1(C(=O)O)CCCC1; Aze = O=C(O)[C@@H]1CCN1; NBuGly = CCCCNCC(=O)O; NPrGly = CCCNCC(=O)O; NEtG = CCNCC(=O)O; Sar = CNCC(=O)O

Tests used:
[1] = biological target: GDP-bound KRAS wild-type protein (Homo sapiens, UniProt P01116); test: Binding to KRAS by surface plasmon resonance (SPR), Single Cycle Kinetics; conditions: SPR Single Cycle Kinetics, GDP-bound KRAS wild-type protein, 1:1 binding model; read-out: KRAS KD
Chain of GDP-bound KRAS wild-type protein (P01116 whole entry): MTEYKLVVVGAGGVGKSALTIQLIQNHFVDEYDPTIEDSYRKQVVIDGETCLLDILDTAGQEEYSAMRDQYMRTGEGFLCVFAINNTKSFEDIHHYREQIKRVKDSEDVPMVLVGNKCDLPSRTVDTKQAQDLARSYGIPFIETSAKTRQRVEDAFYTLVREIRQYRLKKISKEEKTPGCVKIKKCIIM

[2] = biological target: GDP-bound NRAS wild-type protein (Homo sapiens, UniProt P01111); test: Binding to NRAS by surface plasmon resonance (SPR), Single Cycle Kinetics; conditions: SPR, GDP-bound NRAS wild-type protein vs GDP-bound KRAS wild-type protein
Chain of GDP-bound NRAS wild-type protein (P01111 whole entry): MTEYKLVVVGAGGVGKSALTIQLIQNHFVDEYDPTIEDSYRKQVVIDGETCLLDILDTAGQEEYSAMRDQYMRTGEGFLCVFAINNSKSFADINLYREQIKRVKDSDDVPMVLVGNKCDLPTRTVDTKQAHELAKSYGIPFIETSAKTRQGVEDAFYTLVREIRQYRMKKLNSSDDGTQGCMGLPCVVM

[3] = biological target: GDP-bound HRAS wild-type protein (Homo sapiens, UniProt P01112); test: Binding to HRAS by surface plasmon resonance (SPR), Single Cycle Kinetics; conditions: SPR, GDP-bound HRAS wild-type protein vs GDP-bound KRAS wild-type protein
Chain of GDP-bound HRAS wild-type protein (P01112 whole entry): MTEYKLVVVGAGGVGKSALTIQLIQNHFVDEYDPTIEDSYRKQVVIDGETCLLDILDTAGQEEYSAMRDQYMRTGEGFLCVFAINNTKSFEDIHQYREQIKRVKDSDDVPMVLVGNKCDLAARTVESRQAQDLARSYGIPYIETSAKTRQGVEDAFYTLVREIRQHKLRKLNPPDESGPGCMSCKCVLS

SMILES | Kd [1] | NRAS/KRAS (ratio of KD value for NRAS to KD value for KRAS) [2] | HRAS/KRAS (ratio of KD value for HRAS to KD value for KRAS) [3]
CC[C@H](C)[C@@H]1NC(=O)[C@H](CC(C)C)N(C)C(=O)C[C@@H](C(=O)N2CCOCC2)N(C)C(=O)[C@H](C(C)C)N(C)C(=O)C2(CCCC2)NC(=O)[C@@H]2CCCN2C(=O)[C@H](CCc2ccc(C(F)(F)F)c(Cl)c2)NC(=O)CN(C)C(=O)[C@H](Cc2ccc(C)cc2)N(CC)C(=O)[C@@H]2CCN2C(=O)[C@H](C)N(C)C1=O [PP0015] ([NMeL]I[NMeA][Aze][NEtPhe(4-Me)][Sar][hPhe(3-Cl-4-CF3)]P[Ac5c][NMeV][NMeD]-Morpholide; lactam N-11) | 2.7 nM | C (A compound having a KD ratio of 0.1 or more and less than 3 is denoted as C) | C (A compound having a KD ratio of 0.1 or more and less than 3 is denoted as C)
CC[C@H](C)[C@@H]1NC(=O)[C@H](CC(C)C)N(C)C(=O)C[C@@H](C(=O)N2CCOCC2)N(C)C(=O)[C@H](CC(C)C)N(C)C(=O)C2(CCCC2)NC(=O)[C@@H]2CCCN2C(=O)[C@H](CCc2ccc(C(F)(F)F)c(Cl)c2)NC(=O)CN(C)C(=O)[C@H](Cc2ccc(C)cc2)N(CC)C(=O)[C@@H]2CCN2C(=O)[C@H](C)N(C)C1=O [PP0016] ([NMeL]I[NMeA][Aze][NEtPhe(4-Me)][Sar][hPhe(3-Cl-4-CF3)]P[Ac5c][NMeL][NMeD]-Morpholide; lactam N-11) | 1.6 nM | C (A compound having a KD ratio of 0.1 or more and less than 3 is denoted as C) | C (A compound having a KD ratio of 0.1 or more and less than 3 is denoted as C)
CC[C@H](C)[C@@H]1NC(=O)[C@H](CC(C)C)N(C)C(=O)C[C@@H](C(=O)N2CCOCC2)N(C)C(=O)[C@H](C2CCCC2)N(C)C(=O)C2(CCCC2)NC(=O)[C@@H]2CCCN2C(=O)[C@H](CCc2ccc(C(F)(F)F)c(Cl)c2)NC(=O)CN(C)C(=O)[C@H](Cc2ccc(C)cc2)N(C)C(=O)CN(C)C(=O)CN(C)C1=O [PP0018] ([NMeL]I[Sar][Sar][NMePhe(4-Me)][Sar][hPhe(3-Cl-4-CF3)]P[Ac5c][NMeGly(cPent)][NMeD]-Morpholide; lactam N-11) | 0.077 nM | C (A compound having a KD ratio of 0.1 or more and less than 3 is denoted as C) | C (A compound having a KD ratio of 0.1 or more and less than 3 is denoted as C)
CC[C@H](C)[C@@H]1NC(=O)[C@H](CC(C)C)N(C)C(=O)C[C@@H](C(=O)N2CCOCC2)N(C)C(=O)[C@H](C2CCCC2)N(C)C(=O)C2(CCCC2)NC(=O)[C@@H]2CCCN2C(=O)[C@H](CCc2ccc(C(F)(F)F)c(Cl)c2)NC(=O)CN(C)C(=O)[C@H](Cc2ccc(C)cc2)N(C)C(=O)CN(CC)C(=O)CN(C)C1=O [PP0019] ([NMeL]I[Sar][NEtG][NMePhe(4-Me)][Sar][hPhe(3-Cl-4-CF3)]P[Ac5c][NMeGly(cPent)][NMeD]-Morpholide; lactam N-11) | 0.34 nM | C (A compound having a KD ratio of 0.1 or more and less than 3 is denoted as C) | C (A compound having a KD ratio of 0.1 or more and less than 3 is denoted as C)
CCCN1CC(=O)N(C)[C@@H](Cc2ccc(C)cc2)C(=O)N(C)CC(=O)N[C@@H](CCc2ccc(C(F)(F)F)c(Cl)c2)C(=O)N2CCC[C@H]2C(=O)NC2(CCCC2)C(=O)N(C)[C@@H](C2CCCC2)C(=O)N(C)[C@H](C(=O)N2CCOCC2)CC(=O)N(C)[C@@H](CC(C)C)C(=O)N[C@@H]([C@@H](C)CC)C(=O)N(C)CC1=O [PP0020] ([NMeL]I[Sar][NPrGly][NMePhe(4-Me)][Sar][hPhe(3-Cl-4-CF3)]P[Ac5c][NMeGly(cPent)][NMeD]-Morpholide; lactam N-11) | 0.77 nM | C (A compound having a KD ratio of 0.1 or more and less than 3 is denoted as C) | C (A compound having a KD ratio of 0.1 or more and less than 3 is denoted as C)
CCCCN1CC(=O)N(C)[C@@H](Cc2ccc(C)cc2)C(=O)N(C)CC(=O)N[C@@H](CCc2ccc(C(F)(F)F)c(Cl)c2)C(=O)N2CCC[C@H]2C(=O)NC2(CCCC2)C(=O)N(C)[C@@H](C2CCCC2)C(=O)N(C)[C@H](C(=O)N2CCOCC2)CC(=O)N(C)[C@@H](CC(C)C)C(=O)N[C@@H]([C@@H](C)CC)C(=O)N(C)CC1=O [PP0021] ([NMeL]I[Sar][NBuGly][NMePhe(4-Me)][Sar][hPhe(3-Cl-4-CF3)]P[Ac5c][NMeGly(cPent)][NMeD]-Morpholide; lactam N-11) | 0.65 nM | C (A compound having a KD ratio of 0.1 or more and less than 3 is denoted as C) | C (A compound having a KD ratio of 0.1 or more and less than 3 is denoted as C)
CC[C@H](C)[C@@H]1NC(=O)[C@H](CC(C)C)N(C)C(=O)C[C@@H](C(=O)N2CCOCC2)N(C)C(=O)[C@H](C2CCCC2)N(C)C(=O)C2(CCCC2)NC(=O)[C@@H]2CCCN2C(=O)[C@H](CCc2ccc(C(F)(F)F)c(Cl)c2)NC(=O)CN(C)C(=O)[C@H](Cc2ccc(C)cc2)N(CC)C(=O)CN(C)C(=O)CN(C)C1=O [PP0022] ([NMeL]I[Sar][Sar][NEtPhe(4-Me)][Sar][hPhe(3-Cl-4-CF3)]P[Ac5c][NMeGly(cPent)][NMeD]-Morpholide; lactam N-11) | 0.18 nM | B (a compound having 3 or more and less than 10 is denoted as B) | C (A compound having a KD ratio of 0.1 or more and less than 3 is denoted as C)
CC[C@H](C)[C@@H]1NC(=O)[C@H](CC(C)C)N(C)C(=O)C[C@@H](C(=O)N2CCOCC2)N(C)C(=O)[C@H](C2CCCC2)N(C)C(=O)C2(CCCC2)NC(=O)[C@@H]2CCCN2C(=O)[C@H](CCc2ccc(C(F)(F)F)c(Cl)c2)NC(=O)CN(C)C(=O)[C@H](Cc2ccc(C(F)(F)F)cc2)N(CC)C(=O)CN(C)C(=O)CN(C)C1=O [PP0023] ([NMeL]I[Sar][Sar][NEtPhe(4-CF3)][Sar][hPhe(3-Cl-4-CF3)]P[Ac5c][NMeGly(cPent)][NMeD]-Morpholide; lactam N-11) | 0.14 nM | B (a compound having 3 or more and less than 10 is denoted as B) | C (A compound having a KD ratio of 0.1 or more and less than 3 is denoted as C)
CC[C@H](C)[C@@H]1NC(=O)[C@H](CC(C)C)N(C)C(=O)C[C@@H](C(=O)N2CCOCC2)N(C)C(=O)[C@H](C2CCCC2)N(C)C(=O)C2(CCCC2)NC(=O)[C@@H]2CCCN2C(=O)[C@H](CCc2ccc(C(F)(F)F)c(Cl)c2)NC(=O)CN(C)C(=O)[C@H](C2CCCC2)N(CC)C(=O)CN(C)C(=O)CN(C)C1=O [PP0024] ([NMeL]I[Sar][Sar][X7][Sar][hPhe(3-Cl-4-CF3)]P[Ac5c][NMeGly(cPent)][NMeD]-Morpholide; lactam N-11) | 5.9 nM | B (a compound having 3 or more and less than 10 is denoted as B) | C (A compound having a KD ratio of 0.1 or more and less than 3 is denoted as C)
CC[C@H](C)[C@@H]1NC(=O)[C@H](CC(C)C)N(C)C(=O)C[C@@H](C(=O)N2CCOCC2)N(C)C(=O)[C@H](C2CCCC2)N(C)C(=O)C2(CCCC2)NC(=O)[C@@H]2CCCN2C(=O)[C@H](CCc2ccc(C(F)(F)F)c(Cl)c2)NC(=O)CN(CC)C(=O)[C@H](Cc2ccc(C)cc2)N(C)C(=O)CN(C)C(=O)CN(C)C1=O [PP0025] ([NMeL]I[Sar][Sar][NMePhe(4-Me)][NEtG][hPhe(3-Cl-4-CF3)]P[Ac5c][NMeGly(cPent)][NMeD]-Morpholide; lactam N-11) | 2.4 nM | C (A compound having a KD ratio of 0.1 or more and less than 3 is denoted as C) | C (A compound having a KD ratio of 0.1 or more and less than 3 is denoted as C)
CC[C@H](C)[C@@H]1NC(=O)[C@H](CC(C)C)N(C)C(=O)C[C@@H](C(=O)N2CCOCC2)N(C)C(=O)[C@H](C2CCCC2)N(C)C(=O)C2(CCCC2)NC(=O)[C@@H]2CCCN2C(=O)[C@H](CCc2ccc(C(F)(F)F)c(Cl)c2)NC(=O)CN(C)C(=O)[C@H](Cc2ccc(C)cc2)N(CC)C(=O)CN(CC)C(=O)CN(C)C1=O [PP0027] ([NMeL]I[Sar][NEtG][NEtPhe(4-Me)][Sar][hPhe(3-Cl-4-CF3)]P[Ac5c][NMeGly(cPent)][NMeD]-Morpholide; lactam N-11) | 0.8 nM | C (A compound having a KD ratio of 0.1 or more and less than 3 is denoted as C) | C (A compound having a KD ratio of 0.1 or more and less than 3 is denoted as C)
CC[C@H](C)[C@@H]1NC(=O)[C@H](CC(C)C)N(C)C(=O)C[C@@H](C(=O)N2CCOCC2)N(C)C(=O)[C@H](C2CCCC2)N(C)C(=O)C2(CCCC2)NC(=O)[C@@H]2CCCN2C(=O)[C@H](CCc2ccc(C(F)(F)F)c(Cl)c2)NC(=O)CN(CC)C(=O)[C@H](Cc2ccc(C)cc2)N(CC)C(=O)CN(C)C(=O)CN(C)C1=O [PP0028] ([NMeL]I[Sar][Sar][NEtPhe(4-Me)][NEtG][hPhe(3-Cl-4-CF3)]P[Ac5c][NMeGly(cPent)][NMeD]-Morpholide; lactam N-11) | 2.4 nM | C (A compound having a KD ratio of 0.1 or more and less than 3 is denoted as C) | C (A compound having a KD ratio of 0.1 or more and less than 3 is denoted as C)
